Laboratory results reported in patent US6562978B1, “Cyclic amine compounds as CCR5 antagonists” (Takeda Chemical Industries, Ltd., priority 1999, dated 2003).
Structures can show the parent of a compound that is named as a salt.

These compounds were tested against T1, human CCR5 (Homo sapiens, UniProt P51681) (assay: CCR5 binding assay: inhibition of [125I]-RANTES binding to CHO/CCR5 cells). Conditions: 1.0 μM test compound, 100 pM [125I]-RANTES, room temperature 40 minutes.
T1 construct: expressed in transfected cells; whole cells in the well
Description: (1) Cloning of Human CCR5 Chemokine Receptor
Cloning of CCR5 gene was carried out by PCR (polymerase chain reaction) from human spleen cDNA. With using 0.5 ng of spleen cDNA (Toyobo, QUICK-Clone cDNA) as template, PCR was performed in DNA Thermal Cycler 480 (Perkin-Elmer) (reaction conditions: 30 cycles of 95° C. for 1 minute, 60° C. for 1 minute, and 75° C. for 5 minutes) by adding primer set, 5′-[…]-3′ (25 pmol) and 5′-[…]-3′ (25 pmol), which were designed referring to nucleotide sequence of CCR5 gene reported by Samson et al. (Biochemistry, 35(11), 3362-3367 (1996)) and by using TaKaRa EX Taq (Takara Shuzo). The resultant PCR product was subjected to agarose gel electrophoresis to collect about 1.0 kb DNA fragment, which was subjected to Original TA Cloning Kit (Funakoshi) to carry out cloning of CCR5 gene.
(2) Preparation of Plasmid for Expression of Human […]
The plasmid obtained in the above (1) was digested with restriction enzymes XbaI (Takara Shuzo) and BamHI (Takara Shuzo) and subjected to agarose gel electrophoresis to collect about 1.0 kb DNA fragment. The DNA fragment was mixed with plasmid pcDNA3.1 (Funakoshi) for expression in animal cells, said plasmid being digested with XbaI and BamHI, and they were ligated with DNA Ligation Kit Ver.2 (Takara Shuzo). The resulting plasmid was subjected to transformation of competent cell of E. coli JM109 (Takara Shuzo) to obtain plasmid pCKR5.
(3) Introduction of Plasmid for Expression of Human CCR5 into CHO-K1 Cell and Expression of said Plasmid in CHO-KY Cell
CHO-K1 cells were grown in 750 ml of tissue culture flask (Becton Dickinson) using Ham's F12 medium (Nihon Pharmaceutical) containing 10% fetal calf serum (Life Tech Oriental) and took off with 0.5 g/L trypsin-0.2 g/L EDTA (Life Tech Oriental). The cells were washed with PBS (Life Tech Oriental), centrifuged (1000 rpm, 5 minutes), and suspended in PBS. With using Gene Pulser (Bio-Rad Laboratories), DNA was introduced into the cells under the conditions shown below. That is, to the cuvette of 0.4 cm gap were added 8×10^6 cells and 10 μg of plasmid pCKR5 for expression of human CCR5, and electroporation was carried out under 0.25 kV of voltage and […] of capacitance. The cells were transferred into Ham's F12 medium (Nihon Pharmaceutical) containing 10% fetal calf serum, and cultivated for 24 hours. The cells were again took off and centrifuged, and suspended in Ham's F12 medium (Nihon Pharmaceutical) containing 10% fetal calf serum and 500 μg/ml of geneticin (Life Tech Oriental). The suspension was diluted to give 10^4 cells/ml of the suspension, which was inoculated on 96 well plate (Becton Dickinson) to give geneticin resistant cells. The resulting geneticin resistant cells were cultivated in 96 well plate (Becton Dickinson), and cells expressing CCR5 were selected from the geneticin resistant cells. That is, in assay buffer (Ham's F12 medium containing 0.5% BSA and 20 mM HEPES (Wako Pure Chemical, pH7.2) to which was added 200 pM of [^125I]-RANTES (Amersham) as ligand, binding reaction was carried out at room temperature for 40 minutes, and the buffer was washed with cooled PBS. To the buffer was added 50 μl/well of 1M NaOH, and the mixture was stirred. Radioactivity was determined with γ-counter to select CHO/CCR5 cells which specifically bind to the ligand.
(4) Evaluation of Test Compounds Based on CCR5 Antagonistic Activity
The CHO/CCR5 were inoculated on 96 well microplate (5×10^4 cells/well) and cultivated for 24 hours. The medium was removed by means of suction, and to each well was added assay buffer containing Test Compound (191) and then 100 pM of [^125I]-RANTES (Amersham) as ligand. Binding assay was carried out at room temperature for 40 minutes, and assay buffer was removed by means of suction. Each well was washed twice with cooled PBS, and 200 μl of Microscint-20 (Packard Instrument, Inc.) was added to each well.

T1 sequence (P51681 whole entry): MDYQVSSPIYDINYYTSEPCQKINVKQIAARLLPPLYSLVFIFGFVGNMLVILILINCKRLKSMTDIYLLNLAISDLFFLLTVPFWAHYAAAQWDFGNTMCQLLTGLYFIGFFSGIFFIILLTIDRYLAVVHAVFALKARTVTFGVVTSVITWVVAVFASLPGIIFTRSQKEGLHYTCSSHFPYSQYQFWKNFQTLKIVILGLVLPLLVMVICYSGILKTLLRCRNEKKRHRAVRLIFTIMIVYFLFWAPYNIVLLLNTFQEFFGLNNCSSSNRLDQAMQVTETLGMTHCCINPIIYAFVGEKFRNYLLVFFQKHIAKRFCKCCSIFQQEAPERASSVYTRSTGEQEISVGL

Row | Inhibition Rate (%) at 1.0 μM [%] | SMILES
1 | 97 | CC(=O)N1CCC(C(=O)N(CCCN2CCC(Sc3nc4ccccc4s3)CC2)c2ccc(Cl)c(Cl)c2)CC1 [Example 224]
2 | 96 | CC(=O)N1CCC(C(=O)N(CCCN2CCN(Cc3c(C)noc3C)CC2)c2cccc(Cl)c2)CC1.O=C(O)C(F)(F)F.O=C(O)C(F)(F)F [Example 272, 1-Acetyl-N-(3-chlorophenyl)-N-(3-{4-[(3,5-dimethylisoxazol-4-yl)methyl]-1-piperazinyl}propyl)-4-piperidinecarboxamide 2 Trifluoroacetate]

Same assay, conditions: 1.0 μM test compound, 100 pM [125I]-RANTES, room temperature 40 minutes, read-out: Inhibition Rate (%) at 1.0 μM

Row | inhibition at 1 µM [%] | SMILES
3 | 99 | CN(C)C(=O)N1CCC(C(=O)N(CCCN2CCC(Cc3ccccc3)CC2)c2ccc(Cl)c(Cl)c2)CC1 [Example 27, N-[3-(4-Benzyl-1-piperidinyl)propyl]-N-(3,4-dichlorophenyl)-1-(N,N-dimethylcarbamoyl)-4-piperidinecarboxamide]
4 | 90 | CC(=O)N1CCC(C(=O)N(CCCN2CCC(Sc3cnccn3)CC2)c2cccc(Cl)c2)CC1 [Example 79, 1-Acetyl-N-(3-chlorophenyl)-N-[3-[4-(2-pyrazinylthio)-1-piperidinyl]propyl]-4-piperidinecarboxamide Trifluoroacetate]
5 | 92 | CC(C)S(=O)(=O)N1CCC(C(=O)N(CCCN2CCC(Cc3ccc(F)cc3)CC2)c2ccc(Cl)c(Cl)c2)CC1 [Example 92, N-(3,4-Dichlorophenyl)-N-{3-[4-(4-fluorobenzyl)-1-piperidinyl]propyl}-1-(isopropylsulfonyl)-4-piperidinecarboxamide Trifluoroacetate]
6 | 82 | CC(=O)N1CCC(C(=O)N(CCCN2CCC(Cc3nccs3)CC2)c2cccc(Cl)c2)CC1 [Example 168, 1-Acetyl-N-(3-chlorophenyl)-N-{3-[4-(2-thiazolylmethyl)-1-piperidinyl]propyl}-4-piperidinecarboxamide Ditrifluoroacetate]
7 | 100 | CC(=O)N1CCC(C(=O)N(CCCN2CCC(S(=O)(=O)c3ccc(F)cc3)CC2)c2ccc(Cl)c(Cl)c2)CC1 [Example 189, 1-Acetyl-N-(3,4-dichlorophenyl)-N-{3-[4-(4-fluorophenylsulfonyl)-1-piperidinyl]propyl}-4-piperidinecarboxamide]
8 | 90 | CC(=O)N1CCC(C(=O)N(CCCN2CCC(Nc3ccc(C#N)cc3)CC2)c2ccc(Cl)c(Cl)c2)CC1 [Example 211, 1-Acetyl-N-{3-[4-(4-cyanoanilino)-1-piperidinyl]propyl}-N-(3,4-dichlorophenyl)-4-piperidinecarboxamide]

Continued, compound first:

Row | SMILES | inhibition at 1 µM [%]
9 | CC(=O)N1CCC(C(=O)N(CCCN2CCC(Cc3ccccc3)CC2)c2ccccc2)CC1 [Example 3, 1-Acetyl-N-[3-(4-benzyl-1-piperidinyl)propyl]-N-phenyl-4-piperidinecarboxamide] | 98
10 | CS(=O)(=O)N1CCC(NC(=O)N(CCCN2CCC(Cc3ccccc3)CC2)c2ccccc2)CC1 [Example 15, N-[3-(4-Benzyl-1-piperidinyl)propyl]-N′-[1-(methylsulfonyl)-4-piperidinyl]-N-phenylurea] | 97
11 | CC(=O)N1CCC(C(=O)N(CCCN2CCC(Cc3ccc(F)cc3)CC2)c2cccc(Cl)c2)CC1 [Example 18, 1-Acetyl-N-(3-chlorophenyl)-N-{3-[4-(4-fluorobenzyl)-1-piperidinyl]propyl}-4-piperidinecarboxamide] | 87
12 | CC(=O)N1CCC(C(=O)N(CCCN2CCC(Cc3ccccc3)CC2)Cc2ccc(Cl)cc2)CC1 [Example 40, 1-Acetyl-N-[3-(4-benzyl-1-piperidinyl)propyl]-N-(4-chlorobenzyl)-4-piperidinecarboxamide Trifluoroacetate] | 98
13 | CC(=O)N1CCC(C(=O)N(CCCN2CCN(Cc3ccc4c(c3)OCO4)CC2)c2cccc(Cl)c2)CC1 [Example 57, 1-Acetyl-N-(3-chlorophenyl)-N-[3-(4-piperonyl-1-piperazinyl)propyl]-4-piperidinecarboxamide Trifluoroacetate] | 96
14 | CC(=O)N1CCC(C(=O)N(CCCN2CCC(On3nnc4ccccc43)CC2)c2cccc(Cl)c2)CC1 [Example 88, 1-Acetyl-N-(3-chlorophenyl)-N-[3-[4-(1H-benzotriazol-1-yloxy)-1-piperidinyl]propyl]-4-piperidinecarboxamide Trifluoroacetate] | 99
15 | NC(=O)C(=O)N1CCC(C(=O)N(CCCN2CCC(Cc3ccc(F)cc3)CC2)c2ccc(Cl)c(Cl)c2)CC1 [Example 150, N-(3,4-Dichlorophenyl)-N-{3-[4-(4-fluorobenzyl)-1-piperidinyl]propyl}-1-oxamoyl-4-piperidinecarboxamide Trifluoroacetate] | 98
16 | CC(=O)Nc1ccc(C(=O)N2CCC(C(=O)N(CCCN3CCC(Cc4ccc(F)cc4)CC3)c3ccc(Cl)c(Cl)c3)CC2)cc1 [Example 158, 1-[4-(Acetylamino)benzoyl]-N-(3,4-dichlorophenyl)-N-{3-[4-(4-fluorobenzyl)-1-piperidinyl]propyl}-4-piperidinecarboxamide Trifluoroacetate] | 97
17 | CS(=O)(=O)N1CCC(C(=O)N(CCCN2CCC(S(=O)(=O)c3ccc(F)cc3)CC2)c2ccc(Cl)c(Cl)c2)CC1 [Example 190, N-(3,4-Dichlorophenyl)-N-{3-[4-(4-fluorophenylsulfonyl)-1-piperidinyl]propyl}-1-(methylsulfonyl)-4-piperidinecarboxamide] | 100
18 | CC(=O)N1CCC(C(=O)N(CCCN2CCC(Cc3ccc(S(N)(=O)=O)cc3)CC2)c2ccc(Cl)c(Cl)c2)CC1 [Example 243, 1-Acetyl-N-(3-{4-[4-(aminosulfonyl)benzyl]-1-piperidinyl}propyl)-N-(3,4-dichlorophenyl)-4-piperidinecarboxamide] | 99
19 | CS(=O)(=O)N1CCC(C(=O)N(CCCN2CCC(Cc3ccc(S(N)(=O)=O)cc3)CC2)c2ccc(Cl)c(Cl)c2)CC1 [Example 244, N-(3-{4-[4-(Aminosulfonyl)benzyl]-1-piperidinyl}propyl)-N-(3,4-dichlorophenyl)-1-(methylsulfonyl)-4-piperidinecarboxamide] | 100
20 | COc1ccc(CC2CCN(CCCN(C(=O)C3CCN(C(C)=O)CC3)c3ccc(Cl)c(Cl)c3)CC2)cc1 [Example 249, 1-Acetyl-N-(3,4-dichlorophenyl)-N-{3-[4-(4-methoxybenzyl)-1-piperidinyl]propyl}-4-piperidinecarboxamide] | 94
21 | COc1ccc(CC2CCN(CCCN(C(=O)C3CCN(S(C)(=O)=O)CC3)c3ccc(Cl)c(Cl)c3)CC2)cc1 [Example 250, N-(3,4-Dichlorophenyl)-N-{3-[4-(4-methoxybenzyl)-1-piperidinyl]propyl}-1-(methylsulfonyl)-4-piperidinecarboxamide] | 96
22 | CS(=O)(=O)N1CCC(C(=O)N(CCCN2CCC(Cn3cnc4ccccc43)CC2)c2ccc(Cl)c(Cl)c2)CC1 [Example 261, N-{3-[4-(1H-Benzimidazol-1-ylmethyl)-1-piperidinyl]propyl}-N-(3,4-dichlorophenyl)-1-methylsulfonyl-4-piperidinecarboxamide] | 98
23 | CC(=O)N1CCC(C(=O)N(CCCN2CCC(n3nnc4ccccc43)CC2)c2cccc(Cl)c2)CC1 [Example 289, 1-Acetyl-N-{3-[4-(1H-1,2,3-benzotriazol-1-yl)-1-piperidinyl]propyl}-N-(3-chlorophenyl)-4-piperidinecarboxamide] | 83
